SMILES strings stand for the structures. pKi: −log10 of the molar value.

In the first assay the target is 5-HT2A (Homo sapiens (Human), UniProt P28223). Nature of the assay: Radioligand binding assay, [^3H]5-HT competition, 5-HT2A.
Chain of 5-HT2A (P28223 whole entry): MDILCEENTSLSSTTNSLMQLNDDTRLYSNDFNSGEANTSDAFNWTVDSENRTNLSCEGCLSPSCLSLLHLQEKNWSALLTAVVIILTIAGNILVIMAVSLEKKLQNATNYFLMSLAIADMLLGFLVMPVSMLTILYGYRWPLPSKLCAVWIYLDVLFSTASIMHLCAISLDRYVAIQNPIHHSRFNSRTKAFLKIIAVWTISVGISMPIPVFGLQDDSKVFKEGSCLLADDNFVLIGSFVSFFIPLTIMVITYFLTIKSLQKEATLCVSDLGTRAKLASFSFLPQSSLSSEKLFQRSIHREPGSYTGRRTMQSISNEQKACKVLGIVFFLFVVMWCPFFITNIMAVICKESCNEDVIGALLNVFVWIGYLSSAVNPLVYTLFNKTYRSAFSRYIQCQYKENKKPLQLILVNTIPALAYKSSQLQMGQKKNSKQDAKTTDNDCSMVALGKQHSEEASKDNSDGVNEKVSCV
Conditions: not given
What is called pKi is the negative decadic logarithm of the Ki, by convention in mol/L. As for `COCCC(=O)Nc1ccc(OCCN2CCCC2)c(-c2c(C)ncnc2C)c1` [Compound 235, N-(3-(4,6-dimethylpyrimidin-5-yl)-4-(2-(pyrrolidin-1-yl)ethoxy)phenyl)-3-methoxypropanamide], the pKi is 6.68.

The assay is the same for the next values; noted with them: [^3H]5-HT radioligand, membranes of HEK293 cells expressing recombinant 5-HT2A; Ki from IC50 by Cheng-Prusoff; read-out: 5-HT2A serotonin binding Ki value.
For the molecule `Cc1ncnc(C)c1-c1cc(NC(=O)c2ccn(C)c2)ccc1OCCN1CCCC1` [Compound 201, N-(3-(4,6-dimethylpyrimidin-5-yl)-4-(2-(pyrrolidin-1-yl)ethoxy)phenyl)-1-methyl-1H-pyrrole-3-carboxamide], the pKi is 7.48.

Regarding `Cc1ncnc(C)c1-c1cc(NC(=O)c2ccn(C)n2)ccc1OCCN1CCCC1` [Compound 203, N-(3-(4,6-dimethylpyrimidin-5-yl)-4-(2-(pyrrolidin-1-yl)ethoxy)phenyl)-1-methyl-1H-pyrazole-3-carboxamide], the pKi is 6.11.

For `Cc1cc(C(=O)Nc2ccc(OCCN3CCCC3)c(-c3c(C)ncnc3C)c2)co1` [Compound 204, N-(3-(4,6-dimethylpyrimidin-5-yl)-4-(2-(pyrrolidin-1-yl)ethoxy)phenyl)-5-methylfuran-3-carboxamide], the pKi was 7.88.

Take `CCc1cc(C(=O)Nc2ccc(OCCN3CCCC3)c(-c3c(C)ncnc3C)c2)[nH]n1` [Compound 205, N-(3-(4,6-dimethylpyrimidin-5-yl)-4-(2-(pyrrolidin-1-yl)ethoxy)phenyl)-3-ethyl-1H-pyrazole-5-carboxamide]: the pKi was 7.98.

In the case of `Cc1ncnc(C)c1-c1cc(NC(=O)c2cc(C(C)C)n[nH]2)ccc1OCCN1CCCC1` [Compound 206, N-(3-(4,6-dimethylpyrimidin-5-yl)-4-(2-(pyrrolidin-1-yl)ethoxy)phenyl)-3-isopropyl-1H-pyrazole-5-carboxamide], the pKi is 8.19.

Turning to `Cc1ncnc(C)c1-c1cc(NC(=O)c2cncc(F)c2)ccc1OCCN1CCCC1` [Compound 207, N-(3-(4,6-dimethylpyrimidin-5-yl)-4-(2-(pyrrolidin-1-yl)ethoxy)phenyl)-5-fluoronicotinamide], the pKi is 7.35.

Regarding `COc1cncc(C(=O)Nc2ccc(OCCN3CCCC3)c(-c3c(C)ncnc3C)c2)c1` [Compound 208, N-(3-(4,6-dimethylpyrimidin-5-yl)-4-(2-(pyrrolidin-1-yl)ethoxy)phenyl)-5-methoxynicotinamide], the pKi is 7.65.

Take `Cc1ncnc(C)c1-c1cc(NC(=O)c2ccc(F)cn2)ccc1OCCN1CCCC1` [Compound 210, N-(3-(4,6-dimethylpyrimidin-5-yl)-4-(2-(pyrrolidin-1-yl)ethoxy)phenyl)-5-fluoropicolinamide]: the pKi is 6.87.

Turning to `Cc1ncnc(C)c1-c1cc(NC(=O)[C@@H]2C[C@H]2F)ccc1OCCN1CCCC1` [Compound 211, (1S,2R)—N-(3-(4,6-dimethylpyrimidin-5-yl)-4-(2-(pyrrolidin-1-yl)ethoxy)phenyl)-2-fluorocyclopropane-1-carboxamide], the pKi is 8.68.

For `Cc1ncnc(C)c1-c1cc(NC(=O)[C@H]2C[C@H]2F)ccc1OCCN1CCCC1` [Compound 212, (1R,2R)—N-(3-(4,6-dimethylpyrimidin-5-yl)-4-(2-(pyrrolidin-1-yl)ethoxy)phenyl)-2-fluorocyclopropane-1-carboxamide], the pKi was 8.25.

For the molecule `Cc1ncnc(C)c1-c1cc(NC(=O)[C@@H]2C[C@@H]2F)ccc1OCCN1CCCC1` [Compound 213, (1S,2S)—N-(3-(4,6-dimethylpyrimidin-5-yl)-4-(2-(pyrrolidin-1-yl)ethoxy)phenyl)-2-fluorocyclopropane-1-carboxamide], the pKi was 8.34.

As for `Cc1nc(C)c(C(=O)Nc2ccc(OCCN3CCCC3)c(-c3c(C)ncnc3C)c2)s1` [Compound 215, N-(3-(4,6-dimethylpyrimidin-5-yl)-4-(2-(pyrrolidin-1-yl)ethoxy)phenyl)-2,4-dimethylthiazole-5-carboxamide], the pKi is 7.80.

Take `Cc1cnoc1C(=O)Nc1ccc(OCCN2CCCC2)c(-c2c(C)ncnc2C)c1` [Compound 216, N-(3-(4,6-dimethylpyrimidin-5-yl)-4-(2-(pyrrolidin-1-yl)ethoxy)phenyl)-4-methylisoxazole-5-carboxamide]: the pKi is 7.78.

Turning to `Cc1ncnc(C)c1-c1cc(NC(=O)c2cnoc2)ccc1OCCN1CCCC1` [Compound 218, N-(3-(4,6-dimethylpyrimidin-5-yl)-4-(2-(pyrrolidin-1-yl)ethoxy)phenyl)isoxazole-4-carboxamide], the pKi is 5.82.

On to `Cc1nocc1C(=O)Nc1ccc(OCCN2CCCC2)c(-c2c(C)ncnc2C)c1` [Compound 219], for which the pKi is 8.19.

`Cc1ncnc(C)c1-c1cc(NC(=O)c2cnoc2C)ccc1OCCN1CCCC1` [Compound 220, N-(3-(4,6-dimethylpyrimidin-5-yl)-4-(2-(pyrrolidin-1-yl)ethoxy)phenyl)-5-methylisoxazole-4-carboxamide]: the pKi is 7.66.

For `Cc1ncnc(C)c1-c1cc(NC(=O)c2ncoc2C)ccc1OCCN1CCCC1` [Compound 221, N-(3-(4,6-dimethylpyrimidin-5-yl)-4-(2-(pyrrolidin-1-yl)ethoxy)phenyl)-5-methyloxazole-4-carboxamide], the pKi is 7.94.

For the molecule `Cc1ncnc(C)c1-c1cc(NC(=O)Cc2ncsc2C)ccc1OCCN1CCCC1` [Compound 225, N-(3-(4,6-dimethylpyrimidin-5-yl)-4-(2-(pyrrolidin-1-yl)ethoxy)phenyl)-2-(5-methylthiazol-4-yl)acetamide], the pKi was 6.15.

Consider `Cc1ncoc1CC(=O)Nc1ccc(OCCN2CCCC2)c(-c2c(C)ncnc2C)c1` [Compound 226, N-(3-(4,6-dimethylpyrimidin-5-yl)-4-(2-(pyrrolidin-1-yl)ethoxy)phenyl)-2-(4-methyloxazol-5-yl)acetamide], for which the pKi was 6.15.

Consider `Cc1ncnc(C)c1-c1cc(NC(=O)Cc2ccnn2C)ccc1OCCN1CCCC1` [Compound 227, N-(3-(4,6-dimethylpyrimidin-5-yl)-4-(2-(pyrrolidin-1-yl)ethoxy)phenyl)-2-(1-methyl-1H-pyrazol-5-yl)acetamide], for which the pKi is 7.08.

Take `Cc1ncnc(C)c1-c1cc(NC(=O)CC2CCOC2)ccc1OCCN1CCCC1` (centres unmarked) [Compound 228, N-(3-(4,6-dimethylpyrimidin-5-yl)-4-(2-(pyrrolidin-1-yl)ethoxy)phenyl)-2-(tetrahydrofuran-3-yl)acetamide]: the pKi is 7.89.

For `Cc1ncnc(C)c1-c1cc(NC(=O)CC2CCCO2)ccc1OCCN1CCCC1` (centres unmarked) [Compound 229, N-(3-(4,6-dimethylpyrimidin-5-yl)-4-(2-(pyrrolidin-1-yl)ethoxy)phenyl)-2-(tetrahydrofuran-2-yl)acetamide], the pKi is 6.95.

For `Cc1ncnc(C)c1-c1cc(NC(=O)C2CCCO2)ccc1OCCN1CCCC1` (centres unmarked) [Compound 230, N-(3-(4,6-dimethylpyrimidin-5-yl)-4-(2-(pyrrolidin-1-yl)ethoxy)phenyl)tetrahydrofuran-2-carboxamide], the negative logarithm of the Ki (pKi) is 6.60.

`Cc1ncnc(C)c1-c1cc(NC(=O)C2CCOC2)ccc1OCCN1CCCC1` (centres unmarked) [Compound 231, N-(3-(4,6-dimethylpyrimidin-5-yl)-4-(2-(pyrrolidin-1-yl)ethoxy)phenyl)tetrahydrofuran-3-carboxamide]: the pKi was 7.34.

Turning to `CCOCC(=O)Nc1ccc(OCCN2CCCC2)c(-c2c(C)ncnc2C)c1` [Compound 234, N-(3-(4,6-dimethylpyrimidin-5-yl)-4-(2-(pyrrolidin-1-yl)ethoxy)phenyl)-2-ethoxyacetamide], the pKi is 6.92.

Consider `Cc1ncnc(C)c1-c1cc(NC(=O)Cn2cccn2)ccc1OCCN1CCCC1` [Compound 236, N-(3-(4,6-dimethylpyrimidin-5-yl)-4-(2-(pyrrolidin-1-yl)ethoxy)phenyl)-2-(1H-pyrazol-1-yl)acetamide], for which the negative logarithm of the Ki (pKi) was 7.67.

In the case of `Cc1ncnc(C)c1-c1cc(NC(=O)CN2CCn3cccc3C2)ccc1OCCN1CCCC1` [Compound 237, 2-(3,4-dihydro-1H-pyrrolo[1,2-a]pyrazin-2-yl)-N-[3-(4,6-dimethylpyrimidin-5-yl)-4-(2-pyrrolidin-1-ylethoxy)phenyl]acetamide], the pKi was 7.90.

`Cc1ncnc(C)c1-c1cc(NC(=O)CN2CCn3nccc3C2)ccc1OCCN1CCCC1` [Compound 239, 2-(6,7-dihydropyrazolo[1,5-a]pyrazin-5 (4H)-yl)-N-(3-(4,6-dimethylpyrimidin-5-yl)-4-(2-(pyrrolidin-1-yl)ethoxy)phenyl)acetamide]: the pKi was 7.03.

Turning to `Cc1ncnc(C)c1-c1cc(NC(=O)CN2CCn3cnnc3C2)ccc1OCCN1CCCC1` [Compound 240, 2-(5,6-dihydro-[1,2,4]triazolo[4,3-a]pyrazin-7 (8H)-yl)-N-(3-(4,6-dimethylpyrimidin-5-yl)-4-(2-(pyrrolidin-1-yl)ethoxy)phenyl)acetamide], the negative-log Ki (pKi) is 4.22.

As for `Cc1ncnc(C)c1-c1cc(NC(=O)COC2CC2)ccc1OCCN1CCCC1` [Compound 241, 2-(cyclopropoxy)-N-[3-(4,6-dimethylpyrimidin-5-yl)-4-(2-pyrrolidin-1-ylethoxy)phenyl]acetamide], the pKi was 7.56.

For `Cc1ncnc(C)c1-c1cc(NC(=O)COC2CCC2)ccc1OCCN1CCCC1` [Compound 242, 2-cyclobutoxy-N-(3-(4,6-dimethylpyrimidin-5-yl)-4-(2-(pyrrolidin-1-yl)ethoxy)phenyl)acetamide], the pKi was 7.42.

As for `Cc1ncnc(C)c1-c1cc(NC(=O)[C@@]23COC[C@@H]2C3)ccc1OCCN1CCCC1` [Compound 246, (1R,5R)—N-[3-(4,6-dimethylpyrimidin-5-yl)-4-(2-pyrrolidin-1-ylethoxy)phenyl]-3-oxabicyclo[3.1.0]hexane-1-carboxamide], the pKi was 7.79.

Regarding `Cc1ncnc(C)c1-c1cc(NC(=O)CCc2ccc(F)cc2)ccc1OCCN1CCCC1` [Compound 248, N-[3-(4,6-dimethylpyrimidin-5-yl)-4-(2-pyrrolidin-1-ylethoxy)phenyl]-3-(4-fluorophenyl)propanamide], the pKi was 9.07.

Still in this assay, the particulars now being: read-out: 5-HT2A serotonin binding Ki value.
As to `Cc1nscc1C(=O)Nc1ccc(OCCN2CCCC2)c(-c2c(C)ncnc2C)c1` [Compound 223, N-(3-(4,6-dimethylpyrimidin-5-yl)-4-(2-(pyrrolidin-1-yl)ethoxy)phenyl)-3-methylisothiazole-4-carboxamide], the pKi is 7.98.

Source of the values: patent US20250270172A1, “Pyrimidine Derivatives As Modulators of the 5-HT2A Serotonin Receptor Useful For The Treatment of Disorders Related Thereto” (Arena Pharmaceuticals, Inc., priority 2020, published 2025).
